Assays:
[1] = target: T1, recombinant protein KIF18A (kinesin domain: aa 1-467) (Homo sapiens, UniProt Q8NI77); experiment: Inhibition of KIF18A enzymatic activity (ADP-Glo kinase assay kit); format: biochemical; details: KIF18A 80 nM, ATP 80 µM, 3 h at room temperature, luminescence
T1 construct: KIF18A (kinesin domain: aa 1-467); made in house; host or cells: Bac-to-Bac baculovirus expression system (Invitrogen)
T1 sequence (Q8NI77 1-467): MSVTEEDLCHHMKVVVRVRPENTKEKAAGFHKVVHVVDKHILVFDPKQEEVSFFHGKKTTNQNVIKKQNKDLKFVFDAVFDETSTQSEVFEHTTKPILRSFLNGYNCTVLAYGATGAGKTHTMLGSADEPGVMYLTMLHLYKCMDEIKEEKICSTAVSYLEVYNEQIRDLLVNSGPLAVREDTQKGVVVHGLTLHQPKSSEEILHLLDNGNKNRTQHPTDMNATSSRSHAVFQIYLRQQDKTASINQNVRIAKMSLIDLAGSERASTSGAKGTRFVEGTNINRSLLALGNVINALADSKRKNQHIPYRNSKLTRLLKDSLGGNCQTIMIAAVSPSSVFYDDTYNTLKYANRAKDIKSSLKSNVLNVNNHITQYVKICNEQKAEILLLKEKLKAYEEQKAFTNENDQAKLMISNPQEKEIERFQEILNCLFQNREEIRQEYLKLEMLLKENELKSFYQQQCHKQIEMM
Source text: The recombinant protein KIF18A (kinesin domain: aa 1-467) used in this assay was expressed by the Bac-to-Bac baculovirus expression system from Invitrogen, and the resulting protein was purified for use in this assay (Seki, M. et al. 2003 Nucleic Acids Res.). Quantitative detection of KIF18A enzymatic activity was completed using an ADP-Glo™ kinase assay kit (Promega Inc). Related procedures strictly followed the product instructions, which are briefly described as follows: The reaction system consisted of a test compound, the recombinant protein KIF18A (aa 1-467), ATP (Promega Inc), and an assay buffer. The test compound was prepared into a 0.5 mM stock solution using DMSO (Sigma Inc) and then serially diluted in DMSO. The assay buffer consisted of an aqueous solution of 15 mM Tris, 10 mM MgCl2 (Sigma Inc), 0.01% Pluronic F-68 (Life Technologies Inc), 1 µM paclitaxel (Cytoskeleton Inc), 30 µg/mL porcine tubulin (Cytoskeleton Inc), and 2% DMSO. […] After all reactions were completed, the luminescence values of the wells were read on a microplate reader (Molecular Device_SpectraMax Id5), and the inhibition ratios were calculated. […] Then, based on the inhibition rates at different compound concentrations, the IC50 value of the test compound was calculated using the GraphPad Prism 8 software.

NIH:OVCAR-3 cells = experiment: Inhibition of OVCAR3 tumor cell proliferation (CellTiter-Glo); format: cell-based; details: Homo sapiens, OVCAR-3, 72 h, 3 days drug treatment
Experimental: NIH:OVCAR-3 cells (ATCC, Cat No. HTB-161, purchased from Co-Bier) were seeded into a T75 culture flask and cultured in an RPMI 1640 medium containing 20% FBS for 3 days in preparation for subsequent culturing and seeding into a 96-well plate for the cell proliferation assay. The OVCAR3 cells were seeded at a density of 3000 cells/100 µL/well into the 96-well cell plate, and then the plate was incubated in an incubator (37 °C, 5% CO2) for 18 h. On the second day, drug treatment was started. Serially diluted test compound solutions (each drug starting at a concentration of 10 µM, diluted in DMSO, with a dilution ratio of 1:3, and nine gradient points for each drug) or DMSO (negative control) was added to the medium in the plate at 100 µL/well, and a blank group was set up with only medium, but no seeded cell strains. After the drug addition, the plate was incubated in the incubator for another 3 days (37 °C, 5% CO2). On the fourth day, plate detection was performed. To each well, 100 µL of CellTiter-Glo reagent (Promega G9243) was added. The plate was shaken for 5 min and then left to stand at room temperature for 5 min. The chemical luminescence signal value of each well was determined using a microplate reader (PerkinElmer EnVision®2104). […] Then, the IC50 value of the test compound was calculated using the GraphPad Prism 8 software.

pKa of the compound = format: physicochemical; details: basic group

For `Cc1cc(-c2cnn(-c3ccc(NS(=O)(=O)CCO)cc3N3CCC4(CC3)CC4)c2)nc(N2CCC(F)(F)CC2)n1` [compound of formula I, N-(4-(4-(2-(4,4-difluoropiperidin-1-yl)-6-methylpyrimidin-4-yl)-1H-pyrazol-1-yl)-3-(6-azaspiro[2.5]octan-6-yl)phenyl)-2-hydroxyethane-1-sulfonamide], which IC50 [1] is on record?
Its IC50 is 11 nM.

And the IC50 (NIH:OVCAR-3 cells)?
The IC50 was 96 nM.

And the pKa (pKa of the compound)?
Its pKa is 4.5.

— patent publication EP4793274A1, “SALT AND CRYSTAL FORM OF KIF18A INHIBITOR COMPOUND, PREPARATION METHOD THEREFOR AND USE THEREOF” (Hubei Bio-Pharmaceutical Industrial Technological Institute …, priority 2023, dated 2025)
